Experimental data as given in paper PMC5438973 (Frontiers in Psychiatry, 2017).
“And” between values parts separate entries of the source, which are not always exact repeats. Equal entries are not always repeated.

How the values were obtained:
h5-HT2C = molecular target: T1, h5-HT2C (Homo sapiens, UniProt P28335); test: Radioligand binding, human cloned h5-HT2C; conditions: agonist radioligand, read-out: Affinity, Mean
T1 construct: expressed in transfected cells; host or cells: AV12 cells
Description: (§1) Binding affinities at the serotonin receptors were determined by standard radioligand-binding methods using human cloned receptors as reported in the literature ([14], [15]).

h5-HT6 = molecular target: T2, h5-HT6 (Homo sapiens, UniProt P50406); test: Radioligand binding, human cloned h5-HT6; conditions: agonist radioligand, read-out: Affinity, Mean
T2 construct: expressed in transfected cells
Description: as §1

h5-HT2B = molecular target: T3, h5-HT2B (Homo sapiens, UniProt P41595); test: GTP-γ-[35S] functional assay (SPA), AV12 cells; type: biochemical
T3 construct: expressed in transfected cells; host or cells: AV12 cells
T3 sequence (P41595 whole entry): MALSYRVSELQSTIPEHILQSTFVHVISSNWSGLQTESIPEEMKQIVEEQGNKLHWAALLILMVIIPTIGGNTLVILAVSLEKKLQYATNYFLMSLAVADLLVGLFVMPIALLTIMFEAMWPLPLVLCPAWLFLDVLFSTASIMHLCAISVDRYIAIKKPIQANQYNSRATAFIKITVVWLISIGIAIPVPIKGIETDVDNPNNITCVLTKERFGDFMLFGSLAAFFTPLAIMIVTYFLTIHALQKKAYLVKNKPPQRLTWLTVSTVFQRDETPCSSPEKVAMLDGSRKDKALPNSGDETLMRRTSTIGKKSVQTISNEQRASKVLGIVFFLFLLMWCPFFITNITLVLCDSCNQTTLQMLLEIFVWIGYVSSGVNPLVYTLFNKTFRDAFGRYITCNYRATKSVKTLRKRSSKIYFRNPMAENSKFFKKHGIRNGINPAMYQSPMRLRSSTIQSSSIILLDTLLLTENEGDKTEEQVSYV
Description: 5-HT2 receptors are functionally coupled to specific G-proteins. Agonist activation of 5-HT2 G-protein coupled receptors results in the release of GDP from alpha-subunit (G alpha q or G alpha i) of the G-protein and the subsequent binding of GTP. The binding of the stable analog GTP-g-[^35S] is an indicator of receptor activation. Human cloned 5-HT2A, −2B, and −2C receptors were expressed in AV12 cells. GTP-g-[^35S] nucleotide exchange scintillation proximity assay (SPA) was used to measure binding as previously described ([14]).

D1 = molecular target: T4, D1 (Homo sapiens, UniProt P21728); test: CEREP broad receptor screening panel; type: binding; conditions: CPD 1 10 µM (table title), duplicate
T4 construct: CEREP
T4 sequence (P21728 whole entry): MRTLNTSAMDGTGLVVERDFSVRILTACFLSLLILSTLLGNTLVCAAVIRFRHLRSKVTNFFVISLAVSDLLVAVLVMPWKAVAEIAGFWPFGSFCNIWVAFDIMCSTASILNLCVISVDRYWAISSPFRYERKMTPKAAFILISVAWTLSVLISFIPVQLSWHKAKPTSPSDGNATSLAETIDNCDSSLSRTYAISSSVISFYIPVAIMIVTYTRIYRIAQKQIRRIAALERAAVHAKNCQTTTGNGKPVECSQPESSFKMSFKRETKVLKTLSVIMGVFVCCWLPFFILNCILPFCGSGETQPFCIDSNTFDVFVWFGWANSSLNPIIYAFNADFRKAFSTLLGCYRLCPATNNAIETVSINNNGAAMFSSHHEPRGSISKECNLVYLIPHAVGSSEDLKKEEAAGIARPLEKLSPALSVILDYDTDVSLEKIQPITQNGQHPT
Description: (§2) Additional selectivity assessment of CPD 1 was performed at CEREP. Methods are available for the multiple assays utilized at http://www.cerep.fr/cerep/users/pages/catalog/assay/catalog.asp. The specific ligand binding to the receptors is defined as the difference between the total binding and the non-specific binding determined in the presence of an excess of unlabeled ligand.

D2s = molecular target: T5, D2s (Homo sapiens, UniProt P14416); test: CEREP broad receptor screening panel; type: binding; conditions: CPD 1 10 µM (table title), duplicate
T5 construct: CEREP
T5 sequence (P14416 1-414 isoform P14416-2): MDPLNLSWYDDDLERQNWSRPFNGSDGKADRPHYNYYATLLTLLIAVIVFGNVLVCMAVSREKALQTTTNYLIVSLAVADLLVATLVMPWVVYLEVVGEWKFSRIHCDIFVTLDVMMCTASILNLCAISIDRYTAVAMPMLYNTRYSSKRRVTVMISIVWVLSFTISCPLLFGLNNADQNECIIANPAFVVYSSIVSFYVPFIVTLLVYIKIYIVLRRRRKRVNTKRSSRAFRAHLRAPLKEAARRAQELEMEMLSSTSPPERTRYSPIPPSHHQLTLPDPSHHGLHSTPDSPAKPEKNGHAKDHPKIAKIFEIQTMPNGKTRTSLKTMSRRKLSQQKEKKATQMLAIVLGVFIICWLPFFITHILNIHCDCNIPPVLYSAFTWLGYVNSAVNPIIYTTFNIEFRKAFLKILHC
Description: as §2

D3 = molecular target: T6, D3 (Homo sapiens, UniProt P35462); test: CEREP broad receptor screening panel; type: binding; conditions: CPD 1 10 µM (table title), duplicate
T6 construct: CEREP
Description: as §2

D4.4 = molecular target: T7, D4.4 (Homo sapiens, UniProt P21917); test: CEREP broad receptor screening panel; type: binding; conditions: CPD 1 10 µM (table title), duplicate
T7 construct: CEREP
Description: as §2

D5 = molecular target: T8, D5 (Homo sapiens, UniProt P21918); test: CEREP broad receptor screening panel; type: binding; conditions: CPD 1 10 µM (table title), duplicate
T8 construct: CEREP
T8 sequence (P21918 whole entry): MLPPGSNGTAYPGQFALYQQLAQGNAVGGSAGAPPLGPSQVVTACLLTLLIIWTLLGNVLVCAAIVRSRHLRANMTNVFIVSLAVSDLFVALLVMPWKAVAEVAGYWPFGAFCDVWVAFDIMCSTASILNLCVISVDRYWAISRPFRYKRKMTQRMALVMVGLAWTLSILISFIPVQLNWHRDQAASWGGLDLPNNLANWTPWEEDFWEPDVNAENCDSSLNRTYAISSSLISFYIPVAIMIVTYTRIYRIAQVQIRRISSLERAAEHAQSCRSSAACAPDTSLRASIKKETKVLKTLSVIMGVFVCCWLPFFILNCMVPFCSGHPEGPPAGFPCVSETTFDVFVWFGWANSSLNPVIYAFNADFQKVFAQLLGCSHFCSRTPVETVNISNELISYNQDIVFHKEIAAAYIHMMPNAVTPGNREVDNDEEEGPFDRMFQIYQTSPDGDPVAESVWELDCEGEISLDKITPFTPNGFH
Description: as §2

H1 = molecular target: T9, H1 (Homo sapiens, UniProt P35367); test: CEREP broad receptor screening panel; type: binding; conditions: CPD 1 10 µM (table title), duplicate
T9 construct: CEREP
T9 sequence (P35367 whole entry): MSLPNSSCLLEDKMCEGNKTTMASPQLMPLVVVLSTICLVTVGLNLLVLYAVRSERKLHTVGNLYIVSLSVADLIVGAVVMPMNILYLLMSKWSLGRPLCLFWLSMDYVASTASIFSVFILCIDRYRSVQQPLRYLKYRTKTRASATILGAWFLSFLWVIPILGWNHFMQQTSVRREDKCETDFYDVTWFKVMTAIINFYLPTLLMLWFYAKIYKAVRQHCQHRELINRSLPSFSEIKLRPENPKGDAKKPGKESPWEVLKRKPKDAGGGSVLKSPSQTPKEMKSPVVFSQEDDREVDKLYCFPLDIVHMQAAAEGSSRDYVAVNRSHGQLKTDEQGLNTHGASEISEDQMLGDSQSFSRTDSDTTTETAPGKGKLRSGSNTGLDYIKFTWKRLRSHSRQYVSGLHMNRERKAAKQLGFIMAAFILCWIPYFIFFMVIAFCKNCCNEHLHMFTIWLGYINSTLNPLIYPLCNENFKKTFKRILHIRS
Description: as §2

H2 = molecular target: T10, H2 (Homo sapiens, UniProt P25021); test: CEREP broad receptor screening panel; type: binding; conditions: CPD 1 10 µM (table title), duplicate
T10 construct: CEREP
T10 sequence (P25021 whole entry): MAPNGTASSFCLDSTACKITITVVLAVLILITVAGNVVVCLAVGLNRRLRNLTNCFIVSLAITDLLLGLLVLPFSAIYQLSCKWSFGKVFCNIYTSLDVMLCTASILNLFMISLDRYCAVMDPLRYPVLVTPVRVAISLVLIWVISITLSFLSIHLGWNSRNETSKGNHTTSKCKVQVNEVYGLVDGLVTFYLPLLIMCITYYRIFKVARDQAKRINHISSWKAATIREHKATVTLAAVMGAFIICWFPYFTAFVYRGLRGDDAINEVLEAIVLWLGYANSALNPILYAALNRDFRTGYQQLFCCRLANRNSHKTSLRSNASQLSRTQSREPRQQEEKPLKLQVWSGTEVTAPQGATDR
Description: as §2

M1 = molecular target: T11, M1 (Homo sapiens, UniProt P11229); test: CEREP broad receptor screening panel; type: binding; conditions: CPD 1 10 µM (table title), duplicate
T11 construct: CEREP
T11 sequence (P11229 whole entry): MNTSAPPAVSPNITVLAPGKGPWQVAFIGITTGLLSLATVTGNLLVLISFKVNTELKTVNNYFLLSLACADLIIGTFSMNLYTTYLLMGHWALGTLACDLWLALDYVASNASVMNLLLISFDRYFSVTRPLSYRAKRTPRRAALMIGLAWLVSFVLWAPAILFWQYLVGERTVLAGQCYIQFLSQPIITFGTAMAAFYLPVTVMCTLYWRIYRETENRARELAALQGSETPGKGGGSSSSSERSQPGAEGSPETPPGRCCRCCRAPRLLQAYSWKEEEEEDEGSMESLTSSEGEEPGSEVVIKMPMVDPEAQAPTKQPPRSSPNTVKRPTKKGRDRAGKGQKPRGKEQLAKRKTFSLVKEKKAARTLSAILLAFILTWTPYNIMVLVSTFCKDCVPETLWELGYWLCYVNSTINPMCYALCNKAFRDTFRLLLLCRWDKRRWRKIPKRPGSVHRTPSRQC
Description: as §2

M3 = molecular target: T12, M3 (Homo sapiens, UniProt P20309); test: CEREP broad receptor screening panel; type: binding; conditions: CPD 1 10 µM (table title), duplicate
T12 construct: CEREP (contract screening)
T12 sequence (P20309 whole entry): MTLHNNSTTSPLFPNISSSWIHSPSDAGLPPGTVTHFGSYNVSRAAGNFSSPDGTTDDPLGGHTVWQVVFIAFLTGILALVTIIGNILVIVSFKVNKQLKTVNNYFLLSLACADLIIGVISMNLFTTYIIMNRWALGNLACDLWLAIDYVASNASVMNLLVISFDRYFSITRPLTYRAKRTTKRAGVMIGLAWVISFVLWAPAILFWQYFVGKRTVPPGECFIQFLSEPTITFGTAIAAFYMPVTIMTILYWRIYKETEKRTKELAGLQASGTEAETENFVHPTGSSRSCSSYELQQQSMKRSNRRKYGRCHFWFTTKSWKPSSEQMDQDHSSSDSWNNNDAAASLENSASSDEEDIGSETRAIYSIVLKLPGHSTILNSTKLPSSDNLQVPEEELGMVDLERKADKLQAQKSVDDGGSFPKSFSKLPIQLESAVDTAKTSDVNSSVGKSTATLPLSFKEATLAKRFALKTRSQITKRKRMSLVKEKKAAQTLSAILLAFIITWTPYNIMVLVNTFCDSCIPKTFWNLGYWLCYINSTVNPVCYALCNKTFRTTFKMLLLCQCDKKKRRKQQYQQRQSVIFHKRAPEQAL
Description: as §2

NE transporter = molecular target: T13, NE transporter (Homo sapiens, UniProt P23975); test: CEREP broad receptor screening panel; type: binding; conditions: CPD 1 10 µM (table title), duplicate
T13 construct: CEREP (contract screening)
T13 sequence (P23975 whole entry): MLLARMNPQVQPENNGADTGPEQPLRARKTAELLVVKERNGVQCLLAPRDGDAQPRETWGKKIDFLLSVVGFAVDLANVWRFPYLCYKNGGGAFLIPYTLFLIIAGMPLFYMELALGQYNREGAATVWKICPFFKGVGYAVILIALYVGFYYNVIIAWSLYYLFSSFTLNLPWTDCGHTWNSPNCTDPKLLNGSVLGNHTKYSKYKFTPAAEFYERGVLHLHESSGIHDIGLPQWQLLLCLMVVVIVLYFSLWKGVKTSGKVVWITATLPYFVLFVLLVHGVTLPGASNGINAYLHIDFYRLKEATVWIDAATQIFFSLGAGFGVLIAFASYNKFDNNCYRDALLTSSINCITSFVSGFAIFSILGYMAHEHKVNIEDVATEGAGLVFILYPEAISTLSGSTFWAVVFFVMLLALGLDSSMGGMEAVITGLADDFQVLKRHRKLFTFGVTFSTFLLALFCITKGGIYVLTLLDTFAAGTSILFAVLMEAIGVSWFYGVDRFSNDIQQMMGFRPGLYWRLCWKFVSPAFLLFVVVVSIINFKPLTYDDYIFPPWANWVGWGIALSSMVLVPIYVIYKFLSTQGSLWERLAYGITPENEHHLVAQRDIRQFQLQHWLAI
Description: as §2

Na+ Channel = test: CEREP broad receptor screening panel; type: binding; conditions: CPD 1 10 mM (table title), duplicate
Description: as §2

α2 = test: CEREP broad receptor screening panel; type: binding; conditions: CPD 1 10 mM (table title), duplicate
Description: as §2

β2 = molecular target: T14, β2 (Homo sapiens, UniProt P07550); test: CEREP broad receptor screening panel; type: binding; conditions: CPD 1 10 µM (table title), duplicate
T14 construct: CEREP
Description: as §2

σ = test: CEREP broad receptor screening panel; type: binding; conditions: CPD 1 10 mM (table title), duplicate
Description: as §2

Male, Wistar rats [1] = test: Schedule-induced polydipsia; type: in vivo, rat; conditions: for Decrease of excessive water consumption: sc
Description: Rats were used in these experiments as they have been utilized for such studies in the past with great success in generating significant polydipsia ([16]). Male, Wistar rats were singly housed, and maintained at approximately 85% of their free-feeding weights with free access to water. Twelve adult male, Wistar rats (Harlan Industries, Indianapolis, IN, USA) were used. They were allowed to acclimate to our vivarium for at least 3 days prior to testing. They were 2 months old at the start of the experiments that lasted approximately 6–8 months and were without explicit experimental experience prior to this study. The rats were singly housed, and maintained at approximately 86–91% of their free-feeding weights with post session supplemental feeding of Lab Diet #5001 for rodents (PMI Nutrition International Inc., St. Louis, MO, USA). Body weights were corrected for the normal growth curve of Wistar rats such that actual body weight of each rat increased over the experimental time frame. Water was available continuously in the individual home cages. Rats were inspected daily 7 days/week by experimenters and veterinary staff.
The experiments were conducted using operant behavior test chambers ENV-007 (Med Associates Inc., Georgia, VT, USA), 30.5 cm × 24.1 cm × 29.2 cm. The test chambers were contained within light and sound attenuating shells. A food trough was mounted 2 cm off the grid floor on the centerline. Two response levers were centered 8 cm off the centerline and 7 cm off the grid floor. Three lights were located above each response lever at 15 cm off the grid floor. All events were controlled and lever-press data were recorded by a Compaq computer running MED-PC Version IV (Med Associates Inc., Georgia, VT, USA). The water bottle located within each chamber was weighed before and after experimental sessions.
Experimental sessions lasted 90 min. Test compounds or drug vehicle were administered on Tuesdays and Fridays, given the stability of performance (within 15% variation of the individual animal). Non-injection, control performances were on Thursdays. […] Dose-effect curves and drug interaction data were created by repeated testing in groups of five to eight rats. Test compounds were administered as described in figure legends. The effects of the compound are expressed as a percent of control for each individual animal. Results were analyzed by ANOVA followed by Dunnett’s multiple comparison (p < 0.05).
Thus, in keeping with the guidelines of animal care and use followed here, we utilized the minimum number of animals required for signal detection.

Male, Wistar rats [2] = test: Deprivation-induced drinking; type: in vivo, rat; conditions: 18 h water deprivation, 5.6 mg/kg
Description: Male, Wistar rats (different from those rats used in the schedule-induced polydipsia studies) were used. They were 320 ± 15 g at the initiation of this study. Water was removed from their home cage for 18 h after which water bottles were presented to each rat in an individual housing cage in a quiet room for 60 min. The weight of the water bottle before and after the 60 min period was measured to the nearest 0.1 g. Six to eight rats were studied per dose. It is noted that this deprivation period is considered stressful. After the experiment, the animals were returned to their living cages with continuous access to food and water.

Male, NIH Swiss mice = test: Rotarod performance; type: in vivo, mouse; conditions: mice, 10 mg/kg
Description: Mice were not pretrained on this task.

[3] = GTPgs functional assay, human recombinant cell line
[4] = 10 mg/kg, five consecutive days

T1 sequence (P28335 33-458): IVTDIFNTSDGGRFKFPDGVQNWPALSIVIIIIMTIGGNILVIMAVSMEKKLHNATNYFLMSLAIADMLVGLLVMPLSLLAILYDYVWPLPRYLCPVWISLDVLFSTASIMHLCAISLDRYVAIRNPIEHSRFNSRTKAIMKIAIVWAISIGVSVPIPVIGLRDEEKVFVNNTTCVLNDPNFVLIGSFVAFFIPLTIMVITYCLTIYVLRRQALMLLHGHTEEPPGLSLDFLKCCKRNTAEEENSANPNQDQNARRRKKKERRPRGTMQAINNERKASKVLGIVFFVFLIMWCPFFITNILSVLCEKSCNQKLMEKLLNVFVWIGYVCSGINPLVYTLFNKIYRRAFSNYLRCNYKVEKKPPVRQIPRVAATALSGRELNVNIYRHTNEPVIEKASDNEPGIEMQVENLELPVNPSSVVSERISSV

Question: What does the source list for C[C@H]1CN(c2ccc(C(F)(F)F)c3ccoc23)CCN1 [CPD 1, (3S)-3-methyl-1-[4-(trifluoromethyl)-7-benzofuranyl]-piperazine]?
Answer: Ki (h5-HT2C): 2 nM and 2.11 nM; Ki (h5-HT6): 212 nM; Functional activity (kind of agonism) (h5-HT2B; 5-HT2B): partial agonist; EC50 (h5-HT2B; [3]): 97 ± 23 nM; Emax (h5-HT2B; [3]): 51%; inhibition at 10 µM (D1): 94%; inhibition at 10 µM (D2s): 61%; inhibition at 10 µM (D3): 82%; inhibition at 10 µM (D4.4): 105%; inhibition at 10 µM (D5): 69%; inhibition at 10 µM (H1): 93%; inhibition at 10 µM (H2): 70%; inhibition at 10 µM (M1): 56%; inhibition at 10 µM (M3): 76%; inhibition at 10 µM (NE transporter): 74%; % Inhibition (Na+ Channel): 101%; % Inhibition (α2): 70%; inhibition at 10 µM (β2): 104%; % Inhibition (σ): 100%; Attenuation (tolerance) of the effect over 5 days (Male, Wistar rats [1]; [4]): not a significant attenuation; Effect on excessive water consumption over 5 days of dosing (Male, Wistar rats [1]; [4]): significantly decreased; Decrease of excessive water consumption (Male, Wistar rats [1]; CPD 1 5.6 mg/kg sc with MDL100907 0.1 mg/kg, 30 min prior): 65%; Decrease of excessive water consumption (Male, Wistar rats [1]; CPD 1 5.6 mg/kg, 20 min prior): 64%; Dose at which statistically significant reduction of excessive drinking was detected (Male, Wistar rats [1]; Dunnett p < 0.05): ≥ 3 mg/kg; Effect on excessive drinking / amount of water consumed (Male, Wistar rats [1]; given alone, acute dosing): dose-dependently suppressed; Effect on number of responses emitted (lever pressing for food) (Male, Wistar rats [1]; given alone, acute dosing): without affecting response output; Reduction of deprivation-induced drinking (Male, Wistar rats [2]): 50%; Rotarod falls and failures (Male, NIH Swiss mice; after 5 days of dosing, 12 mice): neither falls nor failures; Rotarod failures (mice failing / tested) (Male, NIH Swiss mice; day 1): 0/12; Rotarod falls (mice falling / tested) (Male, NIH Swiss mice; day 1): 2/12
